Here are results for three compounds from patent USRE40387E1, “Pharmaceutical compositions, dosage forms and methods for oral administration of epothilones” (Bristol-Myers Squibb Company, priority 2001, dated 2008).

This series is described as follows: Caco-2 cell permeability. As to conditions: human, Caco-2. The method, then: The Pc of some model compounds, for which the bioavailability in humans is known, was also determined in the same experiment.

The structures appear in SMILES notation. A value given as a limit tells only on which side of the number the result lay.

Regarding `CC(=O)Nc1ccc(O)cc1` [acetaminophen, reference compound], the apparent permeability (Papp) (usually the rate of passage across a membrane or cell layer, normalised by area and donor concentration) is over 20 ×10⁻⁶ cm/s.

Consider `CC(C)Cc1ccc(C(C)C(=O)O)cc1` (stereo not drawn) [ibuprofen, reference compound], for which the Papp is over 20 ×10⁻⁶ cm/s.

Take `O=C(O)c1ccccc1O` [salicylic acid, reference compound]: the apparent permeability (Papp) is over 20 ×10⁻⁶ cm/s.
